Key:
Test in all cases: relative viability (nuclei count vs DMSO), 5 days (fraction); higher = more cells survive
EMC-BAC-2 = tested on: EMC-BAC-2
Summary of the method: (§1)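 Lung cancer cell lines were pin-tool dosed in 1536-well plates on the day after seeding, with either a lone drug or a fixed anchor-drug dose plus five library-drug doses (not always all listed) in √10 steps. Nuclei were counted on 4× images after 5 days. Relative viability is the ratio of treated-well to vehicle-well nuclei counts, with each value a median of duplicate plates.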

HARA = tested on: HARA
Summary of the method: as §1

NCI-H2170 = tested on: NCI-H2170
Summary of the method: as §1

HOP-62 = tested on: HOP-62
Summary of the method: as §1

NCI-H1993 = tested on: NCI-H1993
Summary of the method: as §1

NCI-H1793 = tested on: NCI-H1793
Summary of the method: as §1

NCI-H3122 = tested on: NCI-H3122
Summary of the method: as §1

SW 900 = tested on: SW 900
Summary of the method: as §1

NCI-H727 = tested on: NCI-H727
Summary of the method: as §1

A-427 = tested on: A-427
Summary of the method: as §1

LU99A = tested on: LU99A
Summary of the method: as §1

ABC-1 = tested on: ABC-1
Summary of the method: as §1

LXF-289 = tested on: LXF-289
Summary of the method: as §1

NCI-H1944 = tested on: NCI-H1944
Summary of the method: as §1

LK-2 = tested on: LK-2
Summary of the method: as §1

NCI-H1792 = tested on: NCI-H1792
Summary of the method: as §1

NCI-H596 = tested on: NCI-H596
Summary of the method: as §1

PC-3 [JPC-3] = tested on: PC-3 [JPC-3]
Summary of the method: as §1

C[C@@H]1CN(CC(=O)Nc2ccc3c(c2)Cc2cccc(-c4cc(=O)cc(N5CCOCC5)o4)c2S3)C[C@H](C)O1 + NC(=O)Nc1cc(-c2cccc(F)c2)sc1C(=O)N[C@H]1CCCNC1 [AZD7762] (partner 0.2 µM)
relative viability (EMC-BAC-2; first compound 0.04 µM): 1.1
relative viability (EMC-BAC-2; first compound 0.1265 µM): 1.15
relative viability (EMC-BAC-2; first compound 0.4 µM): 1.08
relative viability (EMC-BAC-2; first compound 4 µM): 1.24
relative viability (HARA; first compound 0.04 µM): 0.296
relative viability (HARA; first compound 0.1265 µM): 0.259
relative viability (HARA; first compound 0.4 µM): 0.227
relative viability (HARA; first compound 4 µM): 0.329
relative viability (NCI-H2170; first compound 0.04 µM): 0.95
relative viability (NCI-H2170; first compound 0.1265 µM): 0.807
relative viability (NCI-H2170; first compound 0.4 µM): 0.812
relative viability (NCI-H2170; first compound 4 µM): 0.633
relative viability (HOP-62; first compound 0.04 µM): 0.445
relative viability (HOP-62; first compound 0.1265 µM): 0.599
relative viability (HOP-62; first compound 0.4 µM): 0.739
relative viability (HOP-62; first compound 4 µM): 0.624
relative viability (NCI-H1993; first compound 0.04 µM): 0.752
relative viability (NCI-H1993; first compound 0.1265 µM): 0.737
relative viability (NCI-H1993; first compound 0.4 µM): 0.611
relative viability (NCI-H1993; first compound 4 µM): 0.55
relative viability (NCI-H1793; first compound 0.04 µM): 0.588
relative viability (NCI-H1793; first compound 0.1265 µM): 0.514
relative viability (NCI-H1793; first compound 0.4 µM): 0.404
relative viability (NCI-H1793; first compound 4 µM): 0.25
relative viability (NCI-H3122; first compound 0.04 µM): 1.01
relative viability (NCI-H3122; first compound 0.1265 µM): 0.922
relative viability (NCI-H3122; first compound 0.4 µM): 1.05
relative viability (NCI-H3122; first compound 4 µM): 0.733
relative viability (SW 900; first compound 0.04 µM): 0.629
relative viability (SW 900; first compound 0.1265 µM): 0.669
relative viability (SW 900; first compound 0.4 µM): 0.506
relative viability (SW 900; first compound 4 µM): 0.281
relative viability (NCI-H727; first compound 0.04 µM): 0.525
relative viability (NCI-H727; first compound 0.1265 µM): 0.625
relative viability (NCI-H727; first compound 0.4 µM): 0.501
relative viability (NCI-H727; first compound 4 µM): 0.7
relative viability (A-427; first compound 0.04 µM): 0.855
relative viability (A-427; first compound 0.1265 µM): 0.831
relative viability (A-427; first compound 0.4 µM): 0.73
relative viability (A-427; first compound 4 µM): 0.635
relative viability (LU99A; first compound 0.04 µM): 0.334
relative viability (LU99A; first compound 0.1265 µM): 0.472
relative viability (LU99A; first compound 0.4 µM): 0.465
relative viability (LU99A; first compound 4 µM): 0.363
relative viability (ABC-1; first compound 0.1265 µM): 0.742
relative viability (ABC-1; first compound 0.4 µM): 1.52
relative viability (ABC-1; first compound 4 µM): 0.971
relative viability (LXF-289; first compound 0.04 µM): 1.05
relative viability (LXF-289; first compound 0.1265 µM): 1.12
relative viability (LXF-289; first compound 0.4 µM): 1.19
relative viability (LXF-289; first compound 4 µM): 1.04
relative viability (NCI-H1944; first compound 0.1265 µM): 0.561
relative viability (NCI-H1944; first compound 0.4 µM): 0.605
relative viability (NCI-H1944; first compound 4 µM): 0.396
relative viability (LK-2; first compound 0.04 µM): 0.331
relative viability (LK-2; first compound 0.1265 µM): 0.363
relative viability (LK-2; first compound 0.4 µM): 0.293
relative viability (LK-2; first compound 4 µM): 0.432
relative viability (NCI-H1792; first compound 0.04 µM): 0.662
relative viability (NCI-H1792; first compound 0.1265 µM): 0.638
relative viability (NCI-H1792; first compound 0.4 µM): 0.564
relative viability (NCI-H1792; first compound 4 µM): 0.314
relative viability (NCI-H596; first compound 0.04 µM): 1.12
relative viability (NCI-H596; first compound 0.1265 µM): 1.1
relative viability (NCI-H596; first compound 0.4 µM): 1.1
relative viability (NCI-H596; first compound 4 µM): 1.06
relative viability (PC-3 [JPC-3]; first compound 0.04 µM): 0.777
relative viability (PC-3 [JPC-3]; first compound 0.1265 µM): 0.739
relative viability (PC-3 [JPC-3]; first compound 0.4 µM): 0.796
relative viability (PC-3 [JPC-3]; first compound 4 µM): 0.669

CC(C)Oc1cc(Nc2nc(N[C@@H](C)c3ccc(F)cn3)ncc2Cl)n[nH]1 [AZ23] + NC(=O)Nc1cc(-c2cccc(F)c2)sc1C(=O)N[C@H]1CCCNC1 [AZD7762] (partner 0.2 µM)
relative viability (EMC-BAC-2; first compound 0.01 µM): 0.983
relative viability (EMC-BAC-2; first compound 0.03162 µM): 1.21
relative viability (EMC-BAC-2; first compound 0.3162 µM): 1.03
relative viability (HARA; first compound 0.01 µM): 0.252
relative viability (HARA; first compound 0.03162 µM): 0.485
relative viability (HARA; first compound 0.3162 µM): 0.534
relative viability (NCI-H2170; first compound 0.01 µM): 0.885
relative viability (NCI-H2170; first compound 0.03162 µM): 0.887
relative viability (NCI-H2170; first compound 0.3162 µM): 1.06
relative viability (HOP-62; first compound 0.01 µM): 0.493
relative viability (HOP-62; first compound 0.03162 µM): 0.804
relative viability (HOP-62; first compound 0.3162 µM): 0.863
relative viability (NCI-H1993; first compound 0.01 µM): 0.703
relative viability (NCI-H1993; first compound 0.03162 µM): 0.749
relative viability (NCI-H1993; first compound 0.3162 µM): 0.965
relative viability (NCI-H1793; first compound 0.01 µM): 0.361
relative viability (NCI-H1793; first compound 0.03162 µM): 0.498
relative viability (NCI-H1793; first compound 0.3162 µM): 1.3
relative viability (NCI-H3122; first compound 0.01 µM): 1.22
relative viability (NCI-H3122; first compound 0.03162 µM): 1.03
relative viability (NCI-H3122; first compound 0.3162 µM): 1.02
relative viability (SW 900; first compound 0.01 µM): 0.556
relative viability (SW 900; first compound 0.3162 µM): 0.74
relative viability (NCI-H727; first compound 0.01 µM): 0.628
relative viability (NCI-H727; first compound 0.03162 µM): 0.802
relative viability (NCI-H727; first compound 0.3162 µM): 0.597
relative viability (A-427; first compound 0.01 µM): 0.462
relative viability (A-427; first compound 0.03162 µM): 0.724
relative viability (A-427; first compound 0.3162 µM): 1.01
relative viability (LU99A; first compound 0.01 µM): 0.269
relative viability (LU99A; first compound 0.03162 µM): 0.444
relative viability (LU99A; first compound 0.3162 µM): 0.507
relative viability (ABC-1; first compound 0.03162 µM): 1.23
relative viability (ABC-1; first compound 0.3162 µM): 0.835
relative viability (LXF-289; first compound 0.01 µM): 1.14
relative viability (LXF-289; first compound 0.03162 µM): 1.24
relative viability (LXF-289; first compound 0.3162 µM): 1.27
relative viability (NCI-H1944; first compound 0.01 µM): 0.413
relative viability (NCI-H1944; first compound 0.03162 µM): 0.532
relative viability (NCI-H1944; first compound 0.3162 µM): 0.646
relative viability (LK-2; first compound 0.03162 µM): 0.472
relative viability (LK-2; first compound 0.3162 µM): 0.411
relative viability (NCI-H1792; first compound 0.01 µM): 0.595
relative viability (NCI-H1792; first compound 0.03162 µM): 0.515
relative viability (NCI-H1792; first compound 0.3162 µM): 0.904
relative viability (NCI-H596; first compound 0.01 µM): 1.02
relative viability (NCI-H596; first compound 0.03162 µM): 1.04
relative viability (NCI-H596; first compound 0.3162 µM): 1.03
relative viability (PC-3 [JPC-3]; first compound 0.01 µM): 0.663
relative viability (PC-3 [JPC-3]; first compound 0.03162 µM): 0.837
relative viability (PC-3 [JPC-3]; first compound 0.3162 µM): 0.77

Source: the supplement of paper PMC10307832
